Measured values from ChEMBL document CHEMBL4334530, “Glucoconjugated Monoterpene Indole Alkaloids from Uncaria rhynchophylla” (J Nat Prod, 2019).
Where a name gives a salt, the structure may show the parent alone.

Experiments:
A549 = test: Cytotoxicity against human A549 cells assessed as cell growth inhibition measured after 48 hrs by MTT assay; format: functional, cell-based; conditions: A549, 48 h
HepG2 = test: Cytotoxicity against human HepG2 cells assessed as cell growth inhibition measured after 48 hrs by MTT assay; format: functional, cell-based; conditions: HepG2, 48 h
MCF7 = test: Cytotoxicity against human MCF7 cells assessed as cell growth inhibition measured after 48 hrs by MTT assay; format: functional, cell-based; conditions: MCF7, 48 h
Acetylcholinesterase = Acetylcholinesterase (Electrophorus electricus, UniProt O42275); test: Inhibition of electric eel AChE using acetylthiocholine iodide as substrate preincubated for 20 mins followed by substrate addition measured for 30 mins by Ellman's method
Acetylcholinesterase, sequence (O42275 whole entry): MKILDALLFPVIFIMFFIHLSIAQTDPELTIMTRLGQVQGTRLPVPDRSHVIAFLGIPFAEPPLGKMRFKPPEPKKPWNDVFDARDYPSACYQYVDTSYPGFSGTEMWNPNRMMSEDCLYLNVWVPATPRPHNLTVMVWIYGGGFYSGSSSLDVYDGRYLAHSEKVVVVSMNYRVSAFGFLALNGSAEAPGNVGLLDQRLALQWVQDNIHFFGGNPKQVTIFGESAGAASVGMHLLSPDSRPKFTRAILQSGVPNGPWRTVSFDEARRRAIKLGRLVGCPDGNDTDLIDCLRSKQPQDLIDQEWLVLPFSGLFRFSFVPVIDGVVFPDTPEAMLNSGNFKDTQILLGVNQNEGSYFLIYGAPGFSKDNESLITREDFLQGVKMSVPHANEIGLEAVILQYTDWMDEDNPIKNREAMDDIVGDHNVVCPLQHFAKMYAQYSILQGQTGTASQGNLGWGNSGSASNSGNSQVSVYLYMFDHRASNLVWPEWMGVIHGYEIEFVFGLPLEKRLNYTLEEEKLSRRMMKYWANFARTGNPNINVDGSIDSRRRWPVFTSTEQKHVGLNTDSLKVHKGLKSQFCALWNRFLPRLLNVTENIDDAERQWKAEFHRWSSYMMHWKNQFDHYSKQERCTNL

Row | Compound | IC50 (A549) | IC50 (HepG2) | IC50 (MCF7) | IC50 (Acetylcholinesterase)
1 | COC(=O)C1=CO[C@@H](O[C@@H]2O[C@H](CO)[C@@H](O)[C@H](O)[C@H]2O)[C@H]2[C@@H]1C[C@@H]1c3[nH]c4ccccc4c3CCN1[C@H]2CO | > 80 µM | > 80 µM | > 80 µM | 
2 | C=C[C@H]1CN2CC[C@@]3(C(=O)Nc4ccccc43)[C@@H]2C[C@@H]1/C(=C/OC)C(=O)O[C@@H]1O[C@H](CO)[C@@H](O)[C@H](O)[C@H]1O | > 80 µM | > 80 µM | > 80 µM | 
3 | C=C[C@H]1[C@H](O[C@@H]2O[C@H](CO)[C@@H](O)[C@H](O)[C@H]2O)OC=C2C(=O)N3[C@H](C(=O)O)Cc4c([nH]c5ccccc45)[C@@H]3C[C@H]21 | > 80 µM | > 80 µM | > 80 µM | 
4 | COC(=O)C1=CO[C@@H](O[C@@H]2O[C@H](CO)[C@@H](O)[C@H](O)[C@H]2O)[C@H]2[C@@H]1C[C@H]1c3[nH]c4ccccc4c3CCN1[C@H]2CO | > 80 µM | > 80 µM | > 80 µM | 
5 | COC(=O)C1=CO[C@@H](O[C@@H]2O[C@H](CO)[C@@H](O)[C@H](O)[C@H]2O)[C@H]2[C@@H]1C[C@@H]1N(CC[C@]13C(=O)Nc1ccccc13)C[C@@H]2O | > 80 µM | > 80 µM | > 80 µM | 
6 | C=C[C@H]1[C@H](O[C@@H]2O[C@H](CO)[C@@H](O)[C@H](O)[C@H]2O)OC=C(C(=O)OC)[C@H]1C[C@@H]1N[C@H](C(=O)OC)Cc2c1[nH]c1ccccc21 | > 80 µM | > 80 µM | > 80 µM | 
7 | C=C[C@H]1COC(=O)C2=CN3CCc4c([nH]c5cccc(O[C@@H]6O[C@H](CO)[C@@H](O)[C@H](O)[C@H]6O)c45)[C@@H]3C[C@H]21 | > 80 µM | > 80 µM | > 80 µM | 10.5 µM
8 | C=C[C@H]1[C@H](O[C@@H]2O[C@H](CO)[C@@H](O)[C@H](O)[C@H]2O[C@@H]2O[C@H](CO)[C@@H](O)[C@H](O)[C@H]2O)OC=C2C(=O)N3CC[C@@]4(C(=O)Nc5cc(O)ccc54)[C@H]3C[C@H]21 | > 80 µM | > 80 µM | > 80 µM | 
9 | C=C[C@H]1[C@H](O[C@@H]2O[C@H](CO)[C@@H](O)[C@H](O)[C@H]2O[C@@H]2O[C@H](CO)[C@@H](O)[C@H](O)[C@H]2O)OC=C2C(=O)N3CC[C@]4(C(=O)Nc5cc(O)ccc54)[C@H]3C[C@H]21 | > 80 µM | > 80 µM | > 80 µM | 
10 | COC(=O)C1=CO[C@@H](O[C@@H]2O[C@H](CO)[C@@H](O)[C@H](O)[C@H]2O)[C@@H]2[C@@H]3CN4CCc5c([nH]c6ccccc56)[C@]4(C[C@H]12)O3 | > 80 µM | > 80 µM | > 80 µM | 
11 | C=C[C@H]1[C@H](O[C@@H]2O[C@H](CO)[C@@H](O)[C@H](O)[C@H]2O)OC=C(C(=O)OC)[C@H]1C[C@@H]1N[C@H](C(=O)O)Cc2c1[nH]c1ccccc21 | > 80 µM | > 80 µM | > 80 µM | 
12 | O=C1C2=CO[C@@H](O[C@@H]3O[C@H](CO)[C@@H](O)[C@H](O)[C@H]3O[C@@H]3O[C@H](CO)[C@@H](O)[C@H](O)[C@H]3O)[C@H]([C@H](O)CO)[C@@H]2C[C@@H]2c3[nH]c4cc(O[C@@H]5O[C@H](CO)[C@@H](O)[C@H](O)[C@H]5O)ccc4c3CCN12 | > 80 µM | > 80 µM | > 80 µM | 
13 | C=C[C@H]1[C@H](O[C@@H]2O[C@H](CO)[C@@H](O)[C@H](O)[C@H]2O[C@@H]2O[C@H](CO)[C@@H](O)[C@H](O)[C@H]2O)OC=C2C(=O)N3Cc4c([nH]c5cc(O)ccc5c4=O)[C@H]3C[C@H]21 | > 80 µM | > 80 µM | > 80 µM | 
14 | C=C[C@H]1[C@H](O[C@@H]2O[C@H](CO)[C@@H](O)[C@H](O)[C@H]2O)OC=C2C(=O)N3CCc4c([nH]c5ccc(O)cc45)[C@@H]3C[C@H]21 | > 80 µM | > 80 µM | > 80 µM | 
15 | COc1cccc2c1C(=O)c1c(O)c3c(c(O)c1C2=O)C[C@@](O)(C(=O)CO)C[C@@H]3O[C@H]1C[C@H](N)[C@H](O)[C@H](C)O1 [DOXORUBICIN HYDROCHLORIDE] | < 1 µM | < 1 µM | < 1 µM | 
16 | C=C[C@H]1[C@H](O[C@@H]2O[C@H](CO)[C@@H](O)[C@H](O)[C@H]2O)OC=C2C(=O)N3CC[C@@]4(C(=O)Nc5cc(O)ccc54)[C@H]3C[C@H]21 | > 80 µM | > 80 µM | > 80 µM | 
17 | C=C[C@H]1CN2CC[C@]3(C(=O)Nc4ccccc43)[C@@H]2C[C@@H]1/C(=C/OC)C(=O)O[C@@H]1O[C@H](CO)[C@@H](O)[C@H](O)[C@H]1O | > 80 µM | > 80 µM | > 80 µM | 
18 | C=CC1C(C[C@@H]2NCCc3c2[nH]c2ccccc32)C(C(=O)O)=CO[C@H]1O[C@@H]1O[C@H](CO)[C@@H](O)[C@H](O)[C@H]1O (some centres undefined) [STRICTOSIDINIC ACID] | > 80 µM | > 80 µM | > 80 µM | 
19 | C=C[C@H]1[C@H](O[C@@H]2O[C@H](CO)[C@@H](O)[C@H](O)[C@H]2O)OC=C2C(=O)N3Cc4c([nH]c5cc(O)ccc5c4=O)[C@H]3C[C@H]21 | > 80 µM | > 80 µM | > 80 µM | 
20 | C=C[C@H]1[C@H](O[C@@H]2O[C@H](CO)[C@@H](O)[C@H](O)[C@H]2O[C@@H]2O[C@H](CO)[C@@H](O)[C@H](O)[C@H]2O)OC=C2C(=O)N3CCc4c([nH]c5ccccc45)[C@H]3C[C@H]21 | > 80 µM | > 80 µM | > 80 µM | 
21 | C=C[C@H]1[C@H](O[C@@H]2O[C@H](CO)[C@@H](O)[C@H](O)[C@H]2O)OC=C(C(=O)OC)[C@H]1Cc1nc(C(=O)OC)cc2c1[nH]c1ccccc12 | > 80 µM | > 80 µM | > 80 µM | 
22 | C=C[C@H]1[C@H](O[C@@H]2O[C@H](CO)[C@@H](O)[C@H](O)[C@H]2O)OC=C2C(=O)N3CCc4c([nH]c5ccccc45)[C@H]3C[C@H]21 | > 80 µM | > 80 µM | > 80 µM | 
23 | C=C[C@H]1[C@H](O[C@@H]2O[C@H](CO)[C@@H](O)[C@H](O)[C@H]2O)OC=C2C(=O)N3CCc4c([nH]c5ccccc45)[C@@H]3C[C@H]21 | > 80 µM | > 80 µM | > 80 µM | 
24 | COC(=O)C1=CO[C@@H](O[C@@H]2O[C@H](CO)[C@@H](O)[C@H](O)[C@H]2O)[C@@H]2[C@H](O)CN3CCc4c([nH]c5ccccc45)[C@@H]3C[C@H]12 | > 80 µM | > 80 µM | > 80 µM | 
25 | C=C[C@H]1[C@H](O[C@@H]2O[C@H](CO)[C@@H](O)[C@H](O)[C@H]2O[C@@H]2O[C@H](CO)[C@@H](O)[C@H](O)[C@H]2O)OC=C2C(=O)N3CCc4c([nH]c5cc(O[C@@H]6O[C@H](CO)[C@@H](O)[C@H](O)[C@H]6O)ccc45)[C@H]3C[C@H]21 | > 80 µM | > 80 µM | > 80 µM | 
26 | C=C[C@H]1[C@H](O[C@@H]2O[C@H](CO)[C@@H](O)[C@H](O)[C@H]2O)OC=C2C(=O)N3CCc4c([nH]c5cc(O)ccc45)[C@H]3C[C@H]21 | > 80 µM | > 80 µM | > 80 µM | 
